Consider eight compounds from patent US11299509B2, “Trigger-activatable sugar conjugates for cancer-selective labeling and targeting” (The Board of Trustees of the University of Illinois, priority 2017, dated 2022).

pIC50: −log10 of the molar value.

The subject of one data set is CD-1 mice. Description: Maximum tolerable dose (MTD) after i.v. injection. The conditions noted are these: for Maximum tolerable dose (MTD): single i.v. injection, <20% body weight loss. Here is the method: (§1) The maximum tolerable dose (MTD) of the two conjugates were also evaluated in CD-1 mice (FIG. 9). […] The sulfo-DBCO-TEG-VC-DOX was injected using PBS with only one time administration.
(§2) The maximum tolerable dose (MTD) of the two conjugates were also evaluated in mice (FIG. 15).
(§3) A model DBCO-paclitaxel conjugate, PTX-TEG-DBCO was prepared through well-established reactions.

A short description of data set [1]: Maximum tolerable dose (MTD) after i.v. injection. The conditions noted are these: CD-1, mouse, in vivo. Here is the method: as §1, §2, §3
A short description of the next data set: physchem. As to the method: Two DBCO-doxorubicin conjugates were synthesized with a cathepsin-B responsive peptide linker (VC). A tetraethyleneglycol unit was incorporated to improve the solubility of the conjugates (FIG. 7). A sulfonic acid-containing conjugate, sulfo-DBCO-TEG-VC-DOX was also prepared to further improve the solubility of the conjugate. […] The solubility of the two conjugates were first tested.
DBCO-DM1 conjugates (FIG. 11) were then synthesized through well-established chemistries. A polyethylene glycol 5000 was used in the design to serve the following purpose: 1. […] To increase the hydrophilicity of the drug conjugate such that its passive uptake in non-azide labeled cells can be reduced; 3. To increase the blood circulation half-time (pharmacokinetics) of the molecule in vivo.

Data set [2] concerns a variety of breast cancer cell lines. The conditions noted are these: down to; cited from earlier work.
For data set [3], the system named is MDA-MB-231 breast cancer cell. Description: MTT assay to evaluate in vitro cytotoxicity. It is filed as cell-based. The settings on record: 72 hours. As to the method: Standard MTT protocol was followed to evaluate the cytotoxicity of DBCO-drug conjugate. Briefly, MDA-MB-231 cells were seeded in 96-well plate at 3000 cells/well in 100 μL DMEM medium and were allowed to attach overnight. 10 μL DBCO-drug conjugate solution was added into the well to the designated final concentration and incubated at 37° C. for 72 hours. PBS was taken as 100% control. 20 μL 5 mg/mL MTT solution was added to the medium and incubated at 37° C. for 3 hours.

The test system of data set [4] is HepG2 liver cancer cells. Description: Confocal imaging of azido-sugar labeled cells. It is filed as cell-based. The settings on record: DBCO-Cy5 stain. Here is the method: Cells were seeded onto coverslips in a 6-well plate at a cell density of 40 k/well. Ac4GalNAz (AAG) or AAG derivatives were added with a final concentration of 50 μM and the cells were incubated at 37° C. for 72 h. The medium was removed and washed with PBS for three times. DBCO-Cy5 (25 μM) in Opti-MEM was then added and the cells were incubated for another 1 h. Then the medium was removed, and the cells were washed with PBS three times. 4% paraformaldehyde (PFA) solution was added to fix the cells for 10 min, followed by staining of cell nucleus with Hoechst (1 μg/mL) and staining of cell membrane with cell mask orange (5 ug/mL) for 10 min. The coverslips were mounted on microscope slides with the addition of ProLong Gold antifade reagent, and the prepared sample was stored in dark for imaging.

Data set [5] deals with HepG2 liver cancer cells. Description: SDS-PAGE analysis of cells treated with azido-sugars. Format: cell-based. The settings on record: 72 h, DBCO-Cy5 25 μM. As to the method:
HepG2 liver cancer cells were seeded onto 6-well plate at a cell density of 40 k/well. Different azido-sugars at different concentrations were added and incubated with cells for 72 h. After removal of medium and multiple washing steps, DBCO-Cy5 (25 μM) in opti-MEM was added and incubated with cells at 37° C. for 1 h. The opti-MEM was then removed and cells were washed with PBS three times. The cells were homogenized in 150 μL of lysis buffer (RIPA) containing protease inhibitor. The lysate was incubated at 4° C. for 30 min, followed by centrifugation at 5000 rcf for 5 min to remove insoluble debris. The total concentration of soluble protein in each sample was determined by bicinchoninic acid (BCA) assay and adjusted to the same concentration. 4× loading buffer was added to each sample and 15 μL samples containing 20 μg protein were loaded onto 10% SDS-PAGE gel after heating at 95° C. The gel was run for 60 min under 150 V. Cy-5 fluorescence was imaged by Imagequant LAS 4010 Luminescent image analyzer and the gel was further stained by coomassie blue

Data set [6] has as its system MDA-MB-231 (triple negative breast cancer) cells. In words: Metabolic azido-sugar cell labeling, DBCO-Cy5 detection by flow cytometry. It is filed as cell-based. The conditions noted are these: 50 μM sugar, 72 h, DBCO-Cy5 25 μM, no UV. Here is the method:
(§4) These cells were incubated with Ac4GalNAz (AAG), Ac3GalNAzEt (AAG-Et), and PBS respectively for three days.
(§5) It is known that galactosamine can be preferentially taken up by hepatocytes (a type of liver cells) due to the presence of cell receptors such as asialoglycoprotein receptor (ASGPR). Tetraacetyl-N-azidoacetylgalactosamine (AAG) is relative hydrophobic and can passively diffuse into cells through hydrophobic interactions with the lipid cell membrane while N-azidoacetylgalactosamine (AG) is too hydrophilic to penetrate the lipid barrier by passive diffusion. Therefore, AG can only be taken up by cells through receptor-mediated endocytosis.
(§6) Cells were seeded onto coverslips in a 6-well plate at a cell density of 40 k/well. AAG or AAG derivatives were added and incubated with cells for 72 h. […] The opti-MEM was then removed and cells were washed with PBS three times. Cells were lifted by incubating with trypsin solution (100 μL) at 37° C. for 5 min and transferred to test tubes with addition of 4% PFA solution (0.4 mL). Ten thousand cells per sample were analyzed by flow cytometry and data analysis was performed on the FCS Express software.
(§7) AAG-Nb with a final concentration of 50 μM was added. UV light (10 mW/m^2) was applied for 15 min at the start of incubation, and the cells were further incubated for 72 h. Cells without UV irradiation were continuously incubated for 72 h. Cell samples for flow cytometry were then prepared following the above-mentioned procedures.
(In flow cytometry, cells or beads pass a laser one at a time.)

The subject of the next data set is Jurkat (lymphoma) cells. The description is as above. The settings on record: 50 μM sugar, 72 h, DBCO-Cy5 25 μM, no UV. Format: cell-based. Here is the method:
as §4, §5, §6, §7

Data set [7] concerns HepG2 (liver cancer) cells. Described as above. The settings on record: for Cell labeling (Cy5 fluorescence on the cell surface): 50 μM sugar, 72 h, DBCO-Cy5 25 μM, no UV. Format: cell-based. As to the method: as §4, §5, §6, §7
Data set [8] has as its system HepG2 liver cancer cells. Description: MTT cell viability assay of azido-sugars. Format: cell-based. The conditions noted are these: up to 200 μM, 72 h. As to the method: HepG2 liver cancer cells were seeded onto coverslips in a 6-well plate at a cell density of 40 k/well. Different azido-sugars (AG, AAG, and AAM) at different concentrations (50 μM-200 μM) were added, and the cells were incubated at 37° C. for 72 h. The medium was removed. Then 20 μL 3-(4,5-dimethyl-2-thiazolyl)-2,5-diphenyl-2H-tetrazolium bromide (MTT) (5 mg/mL in PBS) was added and cultured at 37° C. for 4 h. MTT is a substrate that provides a colorimetric signal in response to viable mitochondria. Following solubilization by 100 μl DMSO, absorbance at 570 nm was measured using a plate reader.
(In general: Tetrazolium assays rely on reduction of a dye to a coloured formazan, in cell work by metabolically active cells.)

Regarding `N.N.[Cl][Pt][Cl]` [cisplatin, reference compound], the “Maximum tolerable dose (MTD)” value is listed as “about 5 mg/kg” in the data set with CD-1 mice (CD-1 mice) and 5 mg/kg with CD-1 mice (CD-1 mice, listed as cis-platin).

Take `COc1cccc2c1C(=O)c1c(O)c3c(c(O)c1C2=O)C[C@@](O)(C(=O)CO)C[C@@H]3O[C@H]1C[C@H](NC(=O)OCc2ccc(NC(=O)C(CCCNC(N)=O)NC(=O)[C@@H](NC(=O)CCOCCOCCOCCOCCNC(=O)CCC(=O)N3Cc4ccccc4C#Cc4ccccc43)C(C)C)cc2)[C@H](O)[C@H](C)O1` (stereo partly shown) [DBCO-TEG-VC-DOX]: the Body weight change result in the data set with CD-1 mice (mouse, in vivo) is reported as “No significant body weight loss”. The compound also gave an MTD in data set [1] of more than 204 mg/kg. Also, the values for the solubility in “physchem” (aqueous buffer) and in the data set “physchem” (aqueous with cosolvent or surfactant or cyclodextrin) were less than 50 µM and approximately 3500 µg/mL, respectively.

Regarding `COc1cc2cc(c1Cl)N(C)C(=O)C[C@H](OC(=O)[C@H](C)N(C)C(=O)CCS)[C@]1(C)O[C@H]1[C@H](C)[C@@H]1C[C@@](O)(NC(=O)O1)[C@H](OC)/C=C/C=C(\C)C2` [DM1, Mertansine], the “in vitro IC50 value” in [2] was “tens”. In data set [3], the pIC50 is approximately 10.52.

Turning to `[N-]=[N+]=NCC(=O)N[C@H]1C(O)O[C@H](CO)[C@H](O)[C@@H]1O` (stereo partly shown) [AG, N-azidoacetylgalactosamine], in the data set with HepG2 liver cancer cells [4], the “Localization of labeling (confocal microscopy)” value is listed as “mainly localized on cell membrane”. The “Azide groups on cell surface membrane protein (SDS-PAGE, Cy5 fluorescence)” value in the data set on HepG2 liver cancer cells [5] was “did containing azide groups”. The “Cell labeling (Cy5 fluorescence on the cell surface)” value (“Cell labeling” for short) in data set [6] was “only HepG2 cells were positively labeled”; in the data set with Jurkat (lymphoma) cells, “only HepG2 cells were positively labeled”; in [7] it was “positively labeled”. Moreover, the “Concentration dependence of labeling” value in data set [7] (concentration increased from 25 μM to 200 μM) is given as “increased significantly”. In the data set with HepG2 liver cancer cells [8], the “Toxicity to cells (MTT)” value was “not toxic”.

With `CC(=O)OC[C@H]1OC(OC(C)=O)[C@H](NC(=O)CN=[N+]=[N-])[C@@H](OC(C)=O)[C@H]1OC(C)=O` (stereo partly shown) [AAG, Tetraacetyl-N-azidoacetylgalactosamine], the “Cell labeling” value (in data set [6]; with Jurkat (lymphoma) cells; in data set [7]) was “efficiently labeled” in each case.

Turning to `COc1cccc2c1C(=O)c1c(O)c3c(c(O)c1C2=O)C[C@@](O)(C(=O)CO)C[C@@H]3O[C@H]1C[C@H](NC(=O)OCc2ccc(NC(=O)C(CCCNC(N)=O)NC(=O)[C@@H](NC(=O)CCC(=O)NCCOCCOCCOCCOCCC(=O)NCC(C(=O)NCCC(=O)N3Cc4ccccc4C#Cc4ccccc43)S(=O)(=O)O)C(C)C)cc2)[C@H](O)[C@H](C)O1` (stereo partly shown) [sulfo-DBCO-TEG-VC-DOX], in the data set on CD-1 mice (CD-1 mice, one time administration in PBS, up to highest dose used), the Body weight change result is “No body weight decrease”. In data set [1] (iv), this compound came in with an MTD of more than 120 mg/kg. In the data set “physchem” (aqueous buffer), the solubility fell in the range of 8000 to 10000 µg/mL.

As for `CC(=O)OC[C@H]1OC(OC(C)=O)[C@@H](NC(=O)CN=[N+]=[N-])[C@@H](OC(C)=O)[C@@H]1OC(C)=O` (stereo partly shown) [AAM, tetraacetyl-N-azidoacetylmannosamine], the “Cell labeling” value (in data set [6]; in the data set with Jurkat (lymphoma) cells; in data set [7]) was “efficiently labeled” each time.

`CC(=O)O[C@H]1C(=O)[C@@]2(C)C([C@H](OC(=O)c3ccccc3)[C@]3(O)C[C@H](OC(=O)[C@H](OC(=O)COCCOCCOCCOCCNC(=O)CCC(=O)N4Cc5ccccc5C#Cc5ccccc54)[C@@H](NC(=O)c4ccccc4)c4ccccc4)C(C)=C1C3(C)C)[C@]1(OC(C)=O)CO[C@@H]1C[C@@H]2O` (stereo partly shown) [PTX-TEG-DBCO] had an MTD in data set [1] (iv) of more than 200 mg/kg.

Usually MTD stands for the highest dose tested that stayed within the study's limit of toxicity. Low readings indicate a narrow tolerated range, high ones a wide tolerated range. What is called solubility is how much of the substance goes into solution per volume. Read a high solubility as a readily soluble substance. In general, pIC50 refers to the IC50 on a negative log10 scale, so that one unit is a factor of ten. Low readings indicate a large IC50, high ones a small IC50.
